Measurements published in patent publication US20210348177A1, “GENERATION OF HERITABLY GENE-EDITED PLANTS WITHOUT TISSUE CULTURE” (priority 2018, published 2021).
“Also recorded” adds a separate entry of the source.

How the values were obtained:
HSVtk plants = assay: Toxicity of GAN: shoot regeneration of decapitated HSVtk plants; assay type: in vivo, tomato; conditions: for Regeneration of HSVtk plants: one month after decapitation
Experimental: (§1) Roughly one week later, seedlings were decapitated at the injection site using a sharp razor blade. Immediately after decapitation, parafilm was stretched over the decapitation site, to prevent the stem from drying out, and aluminum foil was added to cover the parafilm, shading the cut site to promote callus formation. Plants were returned to growth chamber and monitored for axillary shoot formation and callus regeneration. New shoots forming from the cotyledon axillary buds were removed using forceps as soon as they were observed.
(§2) After 1-2 weeks, the cut site of the stem began forming a white callus, and selection gel was applied. Carbomer 940 powder was added to a water solution containing selection agents to make 0.5% w/v carbomer gel. The pH was adjusted with KOH to 7.5 to thicken the gel. The gel containing the selecting agents was added to the decapitated plants by putting a droplet of the gel to the wound site of the shoot using spatula, about 40-50 uL in volume. Parafilm and aluminum foil was placed back on the cut site, and plants were returned to growth chamber. […] Parafilm and foil were removed from decapitation sites, and shoots were allowed to grow.
(§3) Solutions of D-amino acids were made from D-valine powder (MP Biomedicals 0210322625) and D/L-isoleucine powder (MP Biomedicals 0210208225). Zirgan (ganciclovir ophthalmic gel) 0.15%, an antiviral eye gel was used in making GAN gel, as well as in direct application on decapitated plants.
(§4) HSVtk (no Cas9) plants were germinated and grown in soil. They were decapitated about three weeks after they were sown. The selecting agent, GAN (Ganciclovir), was applied to the decapitated plants after the decapitation. We made a series of GAN gels with different GAN concentrations: 0.1 mM, 1 mM, and 4.5 mM. The 0.1 mM and 1 mM GAN gel was made by diluting the Zirgan ganciclovir ophthalmic gel (4.5 mM GAN) into 0.2% carbomer gel. The two gels were mixed in a 4 mL plastic vial by shaking. Around […] GAN gel was applied to each plant each time, and the gel application was renewed every three to five days.
(§5) We tested whether the carbomer gel itself would have an influence on plant regeneration. We included a group of wildtype plants that received no treatment, and a group of wildtype plants that received carbomer gel containing no GAN. All plants in both groups, except one plant in the control set, regenerated new shoots. Therefore, we eliminated the possibility of regeneration interference from the gel.
(§6) One month after the decapitation and application of GAN selection, the regeneration of shoots was evaluated. In the control plants with 0 mM GAN treatment, including HSVtk and wildtype plants, almost all the plants regenerated new shoots. […] Thus, we concluded that GAN was toxic to both HSVtk plants and wildtype plants at a concentration higher than 0.1 mM. However, as the GAN concentration increased, HSVtk plants became more sensitive to it than wildtype plants. At a concentration of 4.5 mM, GAN could prevent regeneration of the HSVtk plants, while still allowing some wildtype plants to regenerate. Therefore we decided to use a 2 mM dose as the effective selecting agent in our future experiments.

transgene-free plants = assay: Toxicity of GAN: shoot regeneration of decapitated transgene-free (wildtype) plants; assay type: in vivo, tomato; conditions: for Regeneration of transgene-free plants (control): one month after decapitation
Experimental: as §1, §2, §3, §4, §5, §6

HSVtk transgene = assay: CRISPR editing after agro-injection, decapitation and ganciclovir selection: HSVtk; assay type: in vivo, tomato; conditions: ganciclovir counter-selection of HSVtk+Cas9 lines, regenerated shoots
Experimental: In example two, we decapitated the seedlings at the first internode so that cells that were genome edited could form a callus, regenerate new meristems and stems. The Cas9 expressing mother plants were injected with the viral replicon vector and decapitated at the epicotyl a week later. The decapitation site was covered with parafilm and an aluminum foil cap for 4 weeks. Any axillary buds in the cotyledon node were removed. When a solid callus mass was visible (approx. four weeks after decapitation) at the wound site, the caps were removed and ganciclovir was applied (2 mM concentration of the compound in a carbomer gel). Every meristem that developed into a healthy shoot was detached and propagated to fruiting. Mutation level and type were analyzed by PCR and sequencing of amplicons flanking the target genomic sites. Regenerated stems were evaluated for mutation in the marker and POTATO LEAF (C) sequences and the expected change in leaf shape typical of a C knockout. We evaluated the correlation between the Cas9 modified HSVtk and C.
Agrobacterium glycerol stocks transformed with pTRV or pTAV vectors were streaked onto LB plates containing appropriate antibiotics based on plasmids and agro strains. […] After 24 hours, cultures were measured for OD600 using spectrophotometer. […] The next day, OD600 was measured for each culture. […]

[1] = test system: transgenic Arabidopsis root explants / leaf explants; conditions: 0.1 mM GAN; cited from earlier work
transgene-free explants = conditions: 0.1 mM GAN; cited from earlier work
Arabidopsis thaliana = conditions: no DAAO; cited from earlier work
plants that express DAAO = conditions: at the level of 30 mM; cited from earlier work

With `Nc1nc(O)c2ncn(COC(CO)CO)c2n1` [GAN, ganciclovir] the “Regeneration of HSVtk plants (plants regenerated out of treated)” value (HSVtk plants; 0.1 mM GAN) was “(16 out of 18)”, the “Regeneration of HSVtk plants” value (HSVtk plants; 0.1 mM GAN gel on decapitated plants) was 89% and the “Regeneration of HSVtk plants (plants regenerated out of treated)” value (HSVtk plants; 1 mM GAN) was “(4 out of 16)”. For the same molecule, the “Regeneration of HSVtk plants” value (HSVtk plants; 1 mM GAN gel on decapitated plants) was 25%, the “Regeneration of HSVtk plants (plants regenerated out of treated)” value (HSVtk plants; 4.5 mM GAN) was “none of the HSVtk plants regenerated; also recorded: (0 out of 10)” and the “Regeneration of HSVtk plants” value (HSVtk plants; 4.5 mM GAN gel on decapitated plants) was 0%. For the same molecule, the “Concentration at which GAN was toxic to both HSVtk plants and wildtype plants” value (HSVtk plants; decapitated plants, GAN gel, HSVtk and wildtype plants) was “higher than 0.1 mM”, the “Regeneration of transgene-free plants (plants regenerated out of treated)” value (transgene-free plants; 0.1 mM GAN) was “(14 out of 15)” and the “Regeneration of transgene-free plants (control)” value (transgene-free plants; 0.1 mM GAN gel) was 93%. The “Regeneration of transgene-free plants (plants regenerated out of treated)” value (transgene-free plants; 1 mM GAN) was “(8 out of 15)”, the “Regeneration of transgene-free plants (control)” value (transgene-free plants; 1 mM GAN gel) was 53% and the “Regeneration of transgene-free plants (plants regenerated out of treated)” value (transgene-free plants; 4.5 mM GAN) was 6 out of 23 and (6 out of 23). The “Regeneration of transgene-free plants (control)” value (transgene-free plants; 4.5 mM GAN gel) was 26%, the “escapes at current ganciclovir concentrations” value (HSVtk transgene) was roughly 60% and the “shoot regeneration on transgenic root explants or callus formation on leaf explants” value [1] was “significantly reduce”. The “regeneration of transgene-free explants” value (transgene-free explants) was “does not affect”.

In the case of `CC[C@@H](C)[C@@H](N)C(=O)O` [D-isoleucine], the “influence on plant growth” value (Arabidopsis thaliana) is listed as “very little influence on plant growth” and the “effect on plants that express DAAO” value (plants that express DAAO) is listed as “deleterious effects”.

In the case of `C[C@@H](N)C(=O)O` [D-alanine], the “influence on plant growth” value (Arabidopsis thaliana) is listed as “inhibit plant growth even at a low concentration”.

In the case of `N[C@H](CO)C(=O)O` [D-serine], the “influence on plant growth” value (Arabidopsis thaliana) is listed as “inhibit plant growth even at a low concentration”.

In the case of `CC(C)[C@@H](N)C(=O)O` [D-valine], the “influence on plant growth” value (Arabidopsis thaliana) is listed as “very little influence on plant growth” and the “effect on plants that express DAAO” value (plants that express DAAO) is listed as “deleterious effects”.
